Measured values reported in patent US9957288B2, “Pyrabactin analogues to modulate plant development” (Universiteit Gent, priority 2014, dated 2018).
“Also recorded” adds a separate entry of the source. Like-named read-outs stand apart in the source and are kept apart here.

Experiments:
[1] = tested on: Arabidopsis thaliana seedlings
[2] = tested on: tobacco epidermal strips; test: Stomatal closure assay on epidermal strips; type: cell-based, Nicotiana tabacum
[3] = tested on: Arabidopsis thaliana seeds; test: Arabidopsis thaliana seed germination assay; type: in vivo
[4] = tested on: etiolated Arabidopsis thaliana seedlings
[5] = tested on: Arabidopsis thaliana Columbia (Col0) seedlings; test: Lateral root initiation (lateral roots + lateral root primordia, number and density); type: in vivo
[6] = tested on: Arabidopsis thaliana Columbia (Col0) seedlings; test: Primary root elongation of etiolated seedlings on compound medium; type: in vivo
[7] = tested on: Nicotiana benthamiana leaves; test: Leaf dehydration assay (weight loss of pre-treated detached leaves in dry air flow); type: in vivo; conditions: for effect on leaf weight loss / transpiration: pre-treatment: ABA 10 and 100 μM, analogues 10 μM, 6 h dry air flow; for % weight loss (average): average of 5-10 leaves, control 29.51%
[8] = 13 d old etiolated seedlings, 10 μM

Row | Compound | Shoot ([1]; in vivo) | Stomata [2] | effect on stomatal aperture [2] | Seed germination ([3]; in vivo) | effect on seed germination ([3]; in vivo) | AR ([4]; in vivo) | LR ([5]; in vivo) | effect on number of LR+ LRP (lateral root initiation) ([5]; in vivo) | PR ([6]; in vivo) | effect on primary root growth ([6]; in vivo) | effect on LR+ LRP density (per cm primary root) ([5]; in vivo) | effect on shoot development ([1]; in vivo) | effect on adventitious root formation ([4]; in vivo) | other results
1 | CCOP(=O)(NCc1cccnc1)c1ccc(F)c2ccccc12 (stereo not shown) [Analogue E5, Ethyl N-(pyridin-3-ylmethyl)-P-(4-fluoronapht-1-yl)phosphonamidate] | 0 | + | intermediate stomatal closure | +++ | significant reduction of the percentage of germinating seeds | 0 | + | modest to weak inhibitors of lateral root formation | + | modest inhibitors of primary root elongation |  |  |  | 
2 | CCOP(=O)(NCc1ccccn1)c1ccc(Br)c2ccccc12 (stereo not shown) [Analogue E1, Ethyl N-(pyridin-2-ylmethyl)-P-(4-bromonapht-1-yl)phosphonamidate] | 0 | − | did not cause closure of the stomata and even induced the opening | 0 |  | − | ++ | strong inhibitors | + | modest inhibitors of primary root elongation | strong density reduction (even stronger than ABA) |  |  | effect on leaf weight loss / transpiration [7]: reduction of transpiration
3 | CCOP(=O)(NCc1ccccn1)c1ccc(F)c2ccccc12 (stereo not shown) [Analogue E2, Ethyl N-(pyridin-2-ylmethyl)-P-(4-fluoronapht-1-yl)phosphonamidate] | − | +++ |  | 0 |  | − | + | modest to weak inhibitors of lateral root formation | 0 | did not show a significant effect | reduced the numbers of LR+ LRP similarly to ABA | stimulated the development of leaves in comparison with the control | stimulated AR formation | stomata closure to % of the start opening [2]: 50%; time to 50% of closure of stomata [2]: 30 min
4 | CCOP(=O)(NCc1ccncc1)c1ccc(Br)c2ccccc12 (stereo not shown) [Analogue E7, Ethyl N-(pyridin-4-ylmethyl)-P-(4-bromonapht-1-yl)phosphonamidate] | +++ | 0 | did not affect the size of the stomatal aperture | 0 |  | +++ | +++ | strong inhibitors | +++ | strongly inhibited primary root growth |  | strong inhibition of the seedling's shoot development | reduction of adventitious root formation, respectively stronger or similar to pyrabactin | LR+ LRP density ([5]; in vivo): around 5 LR+ LRP per cm primary root
5 | CCOP(=O)(NCc1ccccn1)c1cccc2ccccc12 (stereo not shown) [Analogue E9, Ethyl N-(pyridin-2-ylmethyl)-P-(napht-1-yl)phosphonamidate] | 0 | 0 | did not affect the size of the stomatal aperture | 0 |  | − | + | modest to weak inhibitors of lateral root formation | 0 | modest inhibitors of primary root elongation | reduced the numbers of LR+ LRP similarly to ABA |  |  | effect on leaf weight loss / transpiration [7]: reduction of transpiration
6 | O=S(=O)(NCc1ccccn1)c1ccc(Br)c2ccccc12 [Pyrabactin, pyrabactin] |  |  |  |  |  |  |  |  |  |  |  |  |  | effect on shoot development ([1]; 10 μM): leaf size was also significantly reduced; Shoot ([1]; 10 μM, compared with control not-treated seedlings): ++; effect on shoot development ([1]; 10 μM, listed as pyrabactin): seedlings with a smaller shoot than control seedlings; Stomata ([2]; 10 μM, compared with control not-treated epidermal strips): +; effect on stomatal aperture ([2]; 10 μM, listed as pyrabactin): induced stomatal closure, rapidly but to a much lower degree than ABA; also recorded: demonstrated an effect on the stomata; Seed germination ([3]; 10 μM, compared with control not-treated seeds): ++; effect on seed germination ([3]; different concentrations, gradual and dose-dependent): inhibited seed germination; effect on adventitious root formation ([4]; 10 μM): reduced the formation of these roots; AR ([4]; adventitious root, 10 μM, compared with control not-treated seedlings): +++; effect on LR+ LRP density (per cm primary root) [5, 8]: significantly increased the LR+ LRP density; effect on number of LR+ LRP (lateral root initiation) [5, 8]: only did moderately affect lateral root initiation; LR ([5]; lateral root, 10 μM, compared with control not-treated seedlings): ++; reduction of primary root length ([6]; 10 μM): 2.5 fold; PR ([6]; primary root, 10 μM, compared with control not-treated seedlings): ++
7 | CC1=CC(=O)CC(C)(C)[C@@]1(O)/C=C/C(C)=C\C(=O)O [ABA, Abscisic acid, reference compound] | +++ | +++ | rapidly induces stomatal closure | +++ | inhibited seed germination stronger than pyrabactin | 0 | +++ | strongly reduced the number of LR+ LRP | +++ |  | reduced the number of roots per cm primary root |  | not affected | relative stomatal aperture [2]: 40%; time to 50% of closure of stomata [2]: ≤ 10 min; reduction of primary root length ([6]; in vivo): 5 fold; % weight loss (average) ([7]; leaves pre-treated with 10 μM): 18.54%; % weight loss (average) ([7]; leaves pre-treated with 100 μM): 16.99%; effect on leaf weight loss / transpiration [7]: significantly less weight loss
8 | CCOP(=O)(NCc1ccccc1)c1ccc(F)c2ccccc12 (stereo not shown) [Analogue E6, Ethyl N-(benzyl)-P-(4-fluoronapht-1-yl)phosphonamidate] | ++ | +++ | strongly induced stomatal closure | 0 | did not inhibit the germination | +++ | +++ | strong inhibitors | ++ | reducing the root growth comparable to pyrabactin | strong density reduction (even stronger than ABA) | inhibition of leaf size comparable with pyrabactin | reduction of adventitious root formation, respectively stronger or similar to pyrabactin | 
9 | CCOP(=O)(NCc1ccccc1)c1ccc(Br)c2ccccc12 (stereo not shown) [Analogue E4, Ethyl N-(benzyl)-P-(4-bromonapht-1-yl)phosphonamidate] | +++ | ++ | intermediate stomatal closure | + | did not inhibit the germination | +++ | +++ | strong inhibitors | +++ | strongly inhibited primary root growth | strong density reduction (even stronger than ABA) | strong inhibition of the seedling's shoot development | reduction of adventitious root formation, respectively stronger or similar to pyrabactin | cellular toxicity (inhibitory effect on plant development) ([4]; in vivo): exhibits cellular toxicity at the concentration used
10 | CCOP(=O)(NCc1cccnc1)c1ccc(Br)c2ccccc12 (stereo not shown) [Analogue E3, Ethyl N-(pyridin-3-ylmethyl)-P-(4-bromonapht-1-yl)phosphonamidate] | 0 | ++ | intermediate stomatal closure | 0 |  | − | + | modest to weak inhibitors of lateral root formation | 0 | did not show a significant effect | reduced the numbers of LR+ LRP similarly to ABA |  |  | 
11 | CCOP(=O)(Nc1cccnc1)c1ccccc1 (stereo not shown) [Analogue D3, Ethyl N-(pyridin-3-yl)-P-(phenyl)phosphonamidate] | 0 | 0 | intermediate stomatal closure | 0 |  | 0 | 0 | enhanced lateral root induction | 0 | did not show a significant effect | increased the LR density |  |  | 
12 | CCOP(=O)(OCc1ccccn1)c1ccccc1 (stereo not shown) [Analogue D2, Ethyl (pyridin-2-ylmethyl) phenylphosphonate] | 0 | 0 | did not affect the size of the stomatal aperture | 0 |  | 0 | 0 | did not have a significant effect | 0 | did not show a significant effect | did not significantly affect the LR numbers |  |  | 
